Measured values from patent publication US20020082448A1, “Aminoguanidine carboxylates for the treatment of non-insulin-dependent diabetes mellitus” (The Upjohn Company, priority 1999, published 2002).
Like-named read-outs stand apart in the source and are kept apart here.

Tests used:
mice [1] = settings: cited from earlier work
human serum albumin = human serum albumin (Homo sapiens, UniProt P02768); assay: Non-enzymatic glycosylation of human serum albumin, [14C]-glucose incorporation; assay type: biochemical; settings: for non-enzymatic glycosylation of human serum albumin in vitro: Table 8 assay; for % [14C-glucose] Incorporated: test compound 19.1 mM, 100 mM [14C]-D-glucose, human serum albumin, 37° C., 8 days, control 1.50
human serum albumin, sequence (P02768 25-609): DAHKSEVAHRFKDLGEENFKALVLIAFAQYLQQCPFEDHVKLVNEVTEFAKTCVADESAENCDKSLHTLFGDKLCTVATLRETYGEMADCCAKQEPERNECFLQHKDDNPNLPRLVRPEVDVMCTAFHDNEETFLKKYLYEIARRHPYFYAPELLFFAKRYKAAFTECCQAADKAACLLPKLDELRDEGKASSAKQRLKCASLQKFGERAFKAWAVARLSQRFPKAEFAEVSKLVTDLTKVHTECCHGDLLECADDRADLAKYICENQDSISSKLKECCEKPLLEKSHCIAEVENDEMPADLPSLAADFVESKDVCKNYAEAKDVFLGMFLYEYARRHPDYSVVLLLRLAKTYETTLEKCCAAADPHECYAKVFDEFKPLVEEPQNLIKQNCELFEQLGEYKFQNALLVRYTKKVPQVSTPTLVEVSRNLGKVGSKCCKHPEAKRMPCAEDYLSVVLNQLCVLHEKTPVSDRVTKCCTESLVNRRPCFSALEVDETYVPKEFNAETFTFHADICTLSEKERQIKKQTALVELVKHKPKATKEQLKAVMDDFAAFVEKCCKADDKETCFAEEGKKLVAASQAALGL

[2] = Body weight change in KKAy mice, compound admixed in chow; assay type: in vivo, mouse; settings: for % Change Body Weight: Day 3 vs Day-1
Excerpt: (§1) KKAy mice are rodent models of NIDDM and obesity (Chang, Wyse, Copeland, Peterson, and Ledbetter, 1986). A pre-treatment blood sample was obtained from the retro-orbital sinus and the mice arranged in groups of 6 so that the mean pre-treatment blood glucose level was the same on average in all groups. […] Control mice received unsupplemented chow. On Day 0, the mice were weighed and provided control chow or chow supplemented with test compounds. After 3 days of consuming control chow or chow supplemented with test compounds, a blood sample was obtained for determination of the glucose concentration and the animals were weighed for determination of weight loss. Food consumption was measured by weighing the food provided at the beginning of the study and the food residue at the end of the study. Food consumption was calculated by subtracting the weight of the residue from the weight of the food provided. Drug intake was calculated by multiplying food consumption by 0.5%. […] Blood glucose data are expressed as the average blood glucose concentration in the test group divided by the average blood glucose level in the control group (treatment/control or T/C). Compounds resulting in T/C values equal to or less than 0.90 are considered to be active anti-hyperglycemic agents. Weigh loss data are expressed as percent change in body weight. Compounds resulting in a decrease of 1% or more less than control in body weight over three days are considered to be active anti-obesity agents.

KKAy mice [3] = assay: Reduction of non-fasting blood glucose in KKAy mice, compound admixed in chow; assay type: in vivo, mouse; settings: for % Change Blood Glucose: Day 3 vs Day-1
Excerpt: as §1, with “provided.” for “provided. Drug intake was calculated by multiplying food consumption by 0.5%.”

[4] = cited from earlier work
rats [5] = settings: cited from earlier work; for effect on hyperglycemia: chronic oral
proteins = settings: in vitro; cited from earlier work
[6] = system: advanced glycosylation endproducts; settings: in vivo; cited from earlier work
mice [7] = settings: cited from earlier work; for effect on hyperglycemia / effect on blood glucose concentration: chronic oral; for effect on blood glucose concentration: 250 mg/kg/day
[8] = system: erythrocyte plasma membranes; settings: incubated with glucose in vitro, cited from earlier work
[9] = cited from earlier work; remark: listed apart in the source
[10] = cited from earlier work; remark: listed apart in the source
rats [11] = settings: cited from earlier work
KKAy mice [12] = assay: Intraperitoneal glucose tolerance in diabetic KKAy mice; assay type: in vivo, mouse; settings: for Blood Glucose: KKAy mice, 100 mg/kg oral gavage
C57BL mice = assay: Intraperitoneal glucose tolerance in non-diabetic C57BL mice; assay type: in vivo, mouse; settings: for Blood Glucose: C57BL mice, 100 mg/kg oral gavage
[13] = 0.5% in chow (approx. 500 mg/kg/day)
[14] = normal or alloxan-diabetic rats
[15] = 30 min after 2 g/kg glucose I.P.
[16] = 60 min after 2 g/kg glucose I.P.
[17] = 90 min after 2 g/kg glucose I.P.
[18] = fasted 16-17 h, Time 0 (before 2 g/kg glucose I.P.)
[19] = 0.03% in chow (approx. 30 mg/kg/day)
[20] = 0.06% in chow (approx. 60 mg/kg/day)
[21] = 0.10% in chow (approx. 100 mg/kg/day)
[22] = 0.2% in chow (approx. 200 mg/kg/day)
[23] = 0.3% in chow (approx. 300 mg/kg/day)
[24] = 0.4% in chow (approx. 400 mg/kg/day)

Structure (SMILES): N=C(N)NCCC(=O)O [3-Guanidinopropionic acid]
- glucose tolerance (mice [1]; diabetic KKAy mice, 1% admixture in chow, approximately 1000 mg/kg/day): improves glucose tolerance
- non-enzymatic glycosylation of human serum albumin in vitro (human serum albumin): no effect
- % [14C-glucose] Incorporated (human serum albumin): 1.52%
- % Change Body Weight [2, 13]: −5.4 ± 0.81 %
- dose required to reduce the blood glucose level by 20% (KKAy mice [3]): 130 mg/kg/day
- % Change Blood Glucose (KKAy mice [3]; [13]): −38.4 ± 4.4 %

Structure (SMILES): N=C(N)NN [Aminoguanidine]
- non-enzymatic glycosylation of human serum albumin in vitro (human serum albumin): effective
- % [14C-glucose] Incorporated (human serum albumin): 0.96 (P < 0.05 vs. Control) %
- effect on body weight ([4]; human and rats (Baylin et al.)): increase in body weight
- effect on body weight ([4]; normal or diabetic rats): no effect
- effect on blood glucose level (rats [5]; normal rodents or rats made diabetic by alloxan or streptozotocin): no effect
- non-enzymatic glycosylation of proteins (proteins): inhibit
- formation of advanced glycosylation endproducts [6]: inhibit

Structure (SMILES): N/N=C(\N)NN [Diaminoguanidine]
- effect on body weight [4, 14]: does not affect
- effect on blood glucose level (rats [5]; [14]): no effect
- non-enzymatic glycosylation of proteins (proteins): inhibit
- formation of advanced glycosylation endproducts [6]: inhibit

Structure (SMILES): CN(C)C(=N)N=C(N)N [Metformin]
- glucose tolerance (mice [1]; normal mice, 50 mg/kg): not affect glucose tolerance
- oral glucose tolerance (mice [1]; normal mice, 250 mg/kg): oral glucose tolerance was increased
- effect on hyperglycemia (mice [7]; DBM mice, 400 mg/kg/day): reduces hyperglycemia
- dose required to reduce the blood glucose level by 25% (mice [7]; KKAy mice (Meglasson et al.)): 300 mg/kg/day
- effect on hyperglycemia (mice [7]; KKAy mice, 300 mg/kg/day or more): reduces hyperglycemia
- effect on blood glucose concentration (mice [7]; diabetic ob/ob mice): did not affect
- effect on blood glucose concentration (mice [7]; normal mice): did not affect
- effect on blood glucose concentration (mice [7]; streptozotocin-diabetic mice): did not affect
- non-enzymatic glycosylation of erythrocyte plasma membranes ([8]; 0.5 and 5 micromoles per liter): inhibit non-enzymatic glycosylation
- non-enzymatic glycosylation of erythrocyte plasma membranes ([8]; 50 and 100 micromoles per liter): reverse effect
- effect on body weight ([9]; non-insulin dependent diabetic patients treated for one year (Bailey)): cause weight loss
- effect on body weight ([9]; obese non-insulin dependent diabetic patients, similar length of time (Multi-centre Study)): no significant effect
- effect on hyperglycemia (rats [5]; Zucker fa/fa rats, 350 mg/kg/day): reduces hyperglycemia
- effect on hyperglycemia (rats [5]; neonatal streptozotocin-diabetic rats, 100 mg/kg/day): reduces hyperglycemia
- effect on blood glucose level (rats [5]; rats, acute administration, 264 mg/kg): did not affect
- effect on body weight ([10]; KKAy mice, 1700 mg/kg/day, not at lower doses): statistically significant weight loss
- effect on body weight ([10]; diabetic ob/ob mice, 240 mg/kg/day): did not cause weight loss
- effect on body weight ([10]; streptozotocin-diabetic mice, 60 mg/kg/day): did not cause weight loss
- glucose tolerance (rats [11]; normal rats, 750 mg/kg): not affect glucose tolerance
- oral glucose tolerance (rats [11]; streptozotocin-diabetic rats, 250 mg/kg): oral glucose tolerance was increased

Structure (SMILES): NNC(=NCC(=O)O)NN [N-(dihydrazinomethylene)-glycine]
- Blood Glucose (KKAy mice [12]; [15]): 383 ± 38 mg/dL
- Blood Glucose (KKAy mice [12]; [16]): 396 ± 63 mg/dL
- Blood Glucose (KKAy mice [12]; [17]): 392 ± 67 mg/dL
- Blood Glucose (KKAy mice [12]; [18]): 115 ± 16 mg/dL
- glucose tolerance (KKAy mice [12]; diabetic KKAy mice, 100 mg/kg): improved glucose tolerance
- Blood Glucose (C57BL mice; [15]): 174 ± 17 mg/dL
- Blood Glucose (C57BL mice; [16]): 153 ± 7 mg/dL
- Blood Glucose (C57BL mice; [17]): 161 ± 19 mg/dL
- Blood Glucose (C57BL mice; [18]): 114 ± 9 mg/dL
- fasting blood glucose concentration (C57BL mice; normal C57BL mice, 100 mg/kg): decreased
- glucose tolerance (C57BL mice; normal C57BL mice, 100 mg/kg): improved glucose tolerance
- non-enzymatic glycosylation of human serum albumin in vitro (human serum albumin): reduced
- % [14C-glucose] Incorporated (human serum albumin): 0.81 (P < 0.05 vs. Control) %
- % Change Body Weight [2, 19]: −0.92 ± 0.35%
- % Change Body Weight [2, 20]: −1.51 ± 2.11%
- % Change Body Weight [2, 21]: −4.04 ± 0.76 %
- decrease in the body weight ([2]; 100 mg/kg/day, 4 days): 4%
- % Change Body Weight [2, 22]: −8.22 ± 1.05 %
- % Change Body Weight [2, 23]: −9.94 ± 1.62 ¶ %
- % Change Body Weight [2, 24]: −10.3 ± 0.97 ¶ %
- dose for a similar (25%) reduction in the blood glucose level (KKAy mice [3]): 30 to 60 mg/kg/day
- dose required to reduce the blood glucose level by 20% (KKAy mice [3]): 30 mg/kg/day
- % Change Blood Glucose (KKAy mice [3]; [19]): −13.5 ± 10.5%
- % Change Blood Glucose (KKAy mice [3]; [20]): −34.9 ± 17.1 %
- decrease in the blood glucose level (KKAy mice [3]; 60 mg/kg/day, 4 days): 35%
- % Change Blood Glucose (KKAy mice [3]; [21]): −45.2 ± 6.4 %
- % Change Blood Glucose (KKAy mice [3]; [22]): −69.9 ± 3.2 ¶ %
- % Change Blood Glucose (KKAy mice [3]; [23]): −70.4 ± 1.5 ¶ %
- % Change Blood Glucose (KKAy mice [3]; [24]): −70.3 ± 3.9 ¶ %

Structure (SMILES): Cl.N=C(N)NNCC(=O)O [[2-(aminoiminomethyl)hydrazino]-, monohydrochloride acetic acid]
- non-enzymatic glycosylation of human serum albumin in vitro (human serum albumin): reduced
- % [14C-glucose] Incorporated (human serum albumin): 1.29 (P < 0.10 vs. Control) %

Structure (SMILES): CCCCNC(=N)NC(=N)N [buformin]
- effect on blood glucose level (rats [5]; rats, acute administration, 132 mg/kg): did not affect
